Assay results taken from patent US10039761B2, “Co-crystals and pharmaceutical compositions comprising the same” (Vertex Pharmaceuticals Incorporated, priority 2013, dated 2018).

Experiments:
[1] = Body weight in LU-01-0030 xenograft studies; format: in vivo, mice; conditions: Day 34 study
Procedure: The in vivo efficacies of Compounds (1) and (2) were evaluated alone and in combination with three consecutive days of focused IR in the primary LU-01-0030 NSCLC subcutaneous xenograft model. The dose-dependent anti-tumor activity of Compound (2) alone and in combination with focused beam IR was evaluated in the LU-01-0030 model. […] Mice in the combination treatment groups were monitored (without treatment) for up to 90 days as some mice had no evidence of tumor burden.

[2] = Body weight in OE-19 xenograft studies; format: in vivo; conditions: PO 100 mg/kg bid (0, 4 h) q7dx2, 2 Gy IR q7dx2 ([…]); Day 7
Procedure: The OE-19 cell line xenograft model was used to evaluate the efficacy of Compounds (1) and (2) alone and in combination with IR. Two cycles of treatment were administered (Day 0 and Day 7) as performed in the OD26749 model above.

[3] = Blood exposure in OD26749 bridging study; format: in vivo, nude mice; conditions: nude, mouse, whole blood; 100 mg/kg PO bid (0 and 4 h) combination groups with 2 Gy whole body IR
[4] = test system: ST-02-0004 primary GEJ tumor xenograft; assay: ST-02-0004 primary GEJ tumor xenograft efficacy with focused IR; format: in vivo; conditions: for % T/C (Day 45): 5 mg/kg paclitaxel, 25 mg/kg carboplatin q7dx3 (−[…])
Procedure: The in vivo activities of Compounds (1) and (2) were compared in combination with focused beam IR in a primary gastric cancer subcutaneous xenograft model. In the ST 02 0004 model, focused IR was administered on three consecutive days alone and in combination with Compound (1) or Compound (2).
The anti-tumor activity of Compound (2) in combination with focused-beam IR and the standard of care agents, paclitaxel and carboplatin, was also evaluated in the ST 02 0004 model. Treatment with paclitaxel, carboplatin, and IR was administered once per week for three weeks alone or in combination with Compound (2).
(§1) In Tables 14 and 15, for example, PO bid (0, 4 h) indicates Compound (2) is administered twice (bid) at time point 0 and then 4 hours after; IR (0.25 h) qdx3 indicates radiation is administered 15 minutes (0.25 h) after the administration of Compound (2) (0 h), and once a day for 3 days (qdx3); q7dx2 indicates once a week for two weeks; qod indicates every other day twice (e.g., Day 1 and Day 3); and paclitaxel q7dx3 (−0.25 h), carboplatin q7dx3 (−0.25 h) indicates administration of paclitaxel and carboplatin 15 minutes prior to the administration of Compound (2), followed by additional administration of Compound (2) after 4 hours after the first administration of Compound (2).

[5] = Body weight in OD26749 xenograft studies; format: in vivo, nude mice; conditions: bridging study; Compound (2) PO 50 mg/kg bid (0, 4 h), 2 Gy ([…]) qdx3; Day 1
[6] = test system: OD26749 primary NSCLC xenograft; assay: OD26749 primary NSCLC xenograft efficacy with whole body IR; format: in vivo, nude mice; conditions: bridging study; Compound (2) PO 50 mg/kg bid (0, 4 h), 2 Gy ([…]) qdx3
Procedure: The in vivo efficacies of Compounds (1) and (2) in combination with whole body IR were examined in the OD26749 primary NSCLC (non-small cell lung cancer) and the OE-19 GEJ cell line xenograft models. In these studies, Compounds (1) and (2) were formulated with 16% captisol/1% PVP/1% HPMC E5 pH2.
The in vivo efficacy of Compound (1) was evaluated in the primary OD26749 NSCLC subcutaneous xenograft model. […] […] Compound (1) was administered PO (tid at 0, 3, and 7 h) at 100 mg/kg alone or with a single 2 Gy dose of whole body IR at 3.25 h. […] Compound (1) in combination with 2 Gy whole body IR induced significant tumor regression (% T/Ti of −75; P<0.01) compared to IR alone.
The efficacies of Compounds (1) and (2) in combination with whole body IR (2 Gy) were evaluated in the OD26749 primary NSCLC xenograft model at a Compound ([…]) and Compound (2) dose levels of 50 mg/kg and 100 mg/kg PO bid (0 and 4 h). Two cycles of whole body IR (2 Gy) were given 15 min after the first compound administration (0.25 hour). Control animals were administered vehicle PO bid (0 and 4 h). […]
as §1

primary human tumors = assay: Primary tumor chemosensitivity assay (TCA), Cell Titer-Glo, Bliss; format: cell-based; conditions: Compound (2) with bleomycin; gastric, pancreatic tumors
Procedure: Primary human tumors tested in vitro may provide a better indicator of efficacy of DNA PK inhibition than immortalized cancer cell lines due to their increased heterogeneity and closer proximity to the patient tumor from which they were derived. […] Dissociated cells from mouse-passaged tumors were cultured for 6 days after combination exposure and then assessed for viability using the Cell Titer-Glo assay. The Bliss Additivity statistical model was used to determine the degree of synergy, additivity, or antagonism of each combination treatment.

[7] = test system: LU-01-0030 primary NSCLC subcutaneous xenograft; assay: LU-01-0030 primary NSCLC xenograft efficacy with focused IR; format: in vivo, mice
Procedure: The in vivo efficacies of Compounds (1) and (2) were evaluated alone and in combination with three consecutive days of focused IR in the primary LU-01-0030 NSCLC subcutaneous xenograft model. The dose-dependent anti-tumor activity of Compound (2) alone and in combination with focused beam IR was evaluated in the LU-01-0030 model.
as §1

[2H]c1nc(C)nc([2H])c1-c1cc(NC[C@@H](C)c2cccc3c(C(=O)NC)ccnc23)ncn1 [Compound (2), (S)-N-methyl-8-(1-((2′-methyl-4′,6′-dideutero-[4,5′-bipyrimidin]-6-yl)amino)propan-2-yl)quinoline-4-carboxamide]
Max. body wt loss (%) ([1]; PO 25 mg/kg bid (0, 4 h) qdx3, 2 Gy IR ([…]) qdx3, Day 3): −6.59% | Max. body wt loss (%) ([1]; PO 25 mg/kg qdx3, 2 Gy IR ([…]) qdx3, Day 1): −4.62% | Max. body wt loss (%) ([1]; PO 50 mg/kg bid (0, 4 h) qdx3, 2 Gy IR ([…]) qdx3, Day 3): −6.93% | Max. body wt loss (%) ([1]; PO 50 mg/kg bid (0, 4 h) qdx3, no IR, Day 9): −1.11% | Max. body wt loss (%) ([1]; PO 50 mg/kg qdx3, 2 Gy IR ([…]) qdx3, Day 3): −4.66% | Max. body wt loss (%) [2]: −6.50% | AUC [3]: 58200 ng·h/mL | % T/C (Day 45) ([4]; 2 Gy IR qdx3 ([…]), Compound (2) PO 25 mg/kg bid (0, 4 h) qdx3): 11.1% | % T/C (Day 45) ([4]; 2 Gy IR qdx3 ([…]), Compound (2) PO 50 mg/kg bid (0, 4 h) qdx3): 2.5% | % T/C (Day 45) ([4]; Compound (2) PO 50 mg/kg bid (0, 4 h) qdx3, no IR): 95.4% | % T/C (Day 34) ([4]; Compound (2) PO 25 mg/kg bid (0, 4 h) qdx3, 2 Gy IR qdx3 ([…])): 17.4% | % T/C (Day 34) ([4]; Compound (2) PO 100 mg/kg bid (0, 4 h) qdx3, 2 Gy IR qdx3 ([…])): 9.2% | % T/C (Day 34) ([4]; Compound (2) PO 100 mg/kg bid (0, 4 h) qdx3, no IR): 67.6% | Max. body wt loss (%) [5]: −2.10% | % T/C (Day 22) [6]: 27.2% | tumors additive or synergistic / tumors tested (primary human tumors): 20/20 | tumors strongly synergistic / tumors tested (primary human tumors): 3/20 | % T/Ti (Day 34) ([7]; PO 25 mg/kg bid (0, 4 h) qdx3, 2 Gy IR ([…]) qdx3): −67.1% | % T/Ti (Day 34) ([7]; PO 50 mg/kg bid (0, 4 h) qdx3, 2 Gy IR ([…]) qdx3): −96.3% | % T/C (Day 34) ([7]; PO 50 mg/kg bid (0, 4 h) qdx3, no IR): 98.3% | % T/Ti (Day 34) ([7]; PO 50 mg/kg qdx3, 2 Gy IR ([…]) qdx3): −96.9%
